Among the test systems are OVCAR-4; DMS-114; HCC 2998; LXFL 529; UO-31; 786-0; M14; SK-OV-3; UACC-257; HL-60; NCI-H460; SK-MEL-2; CAKI-1; PC-3; KM12; UACC-62; Malme-3M; SF-295; SF-539; K562.
Holding throughout (experiment): growth of human tumour cells (NCI), 48 h

Structures are written as SMILES.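 All cell lines were grown in 96-well plates and treated with compound for 48 hours. GI50 = concentration required for 50% inhibition of growth.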 Calls of active or inactive are those of the source. Rule as the data show it: active = GI50 up to about 1.1 µM and inactive = higher.

In the case of `O=S1(=O)CCN(c2ccccc2CC(c2c[nH]c3ccccc23)c2c[nH]c3ccccc23)CC1`, the GI50 with OVCAR-4 was 7.91 µM (inactive); with DMS-114, 5.3 µM (inactive); in the experiment with HCC 2998 it was 3.64 µM (inactive); with LXFL 529, 4.13 µM (inactive); in the experiment with UO-31 it was 7.41 µM (inactive); with 786-0, 6.03 µM (inactive). The GI50 in the experiment with M14 was 4.35 µM (inactive); in the experiment on SK-OV-3 it was 8.67 µM (inactive); in the experiment on UACC-257, 5.15 µM (inactive); with HL-60, 1.12 µM (active); in the experiment with NCI-H460 it was 2.67 µM (inactive); in the experiment with SK-MEL-2, 6.24 µM (inactive). Moreover, the GI50 is 9.16 µM (inactive) in the experiment with CAKI-1; 3.64 µM (inactive) in the experiment on PC-3; 3.9 µM (inactive) in the experiment with KM12; 8.99 µM (inactive) with UACC-62; 11.5 µM (inactive) in the experiment with Malme-3M; 8.02 µM (inactive) in the experiment on SF-295. The GI50 with SF-539 was 11.9 µM (inactive); with K562 it was 3.08 µM (inactive).

The record behind these values is ChEMBL document CHEMBL1201862, “PubChem BioAssay data set” (2004).
